The values below come from ChEMBL document CHEMBL5579878, “Allosteric Activation of Protein Phosphatase 5 with Small Molecules” (J Med Chem, 2024).

Substitutions are numbered along the chain they refer to. The source made the active and inactive calls. No cut-off for these calls is given here.

Data set [1] concerns HCT-116. The experiment in a line: Downregulation of AT13387-induced HSP70 expression in PP5 Knockout human HCT-116 cells at 50 uM incubated for 24 hrs by Western blot analysis. The class given is functional, cell-based. (Immunoblotting shows a protein as a band on a membrane.)
The test system of data set [2] is HCT-116. The experiment in a line: Antitumor activity against human HCT-116 cells xenografted in BALB/c nude mouse assessed as decrease in AT13387-induced HSP27 protein expression in tumor at 30 to 60 mg/kg, ip administered every other day for 14 days by Western blot analysis. The class given is functional, organism-based. Conditions: dose 30-60 mg/kg, time 14.0 day. On the technique in general: Xenograft models place foreign cells or tissue in a host animal.

The subject of data set [3] is HCT-116. The experiment in a line: Effect on HSP40 expression level in human HCT-116 cells at 1 to 100 uM incubated for 24 hrs by Western blot analysis. The format is functional, cell-based. The following applies: dose 1-100 µM.
The target of data set [4] is Serine/threonine-protein phosphatase PP1-beta catalytic subunit (Homo sapiens) (UniProt P62140). The experiment in a line: Inhibition of PP1B (unknown origin) using DiFMUP as substrate at 0.01 to 1000 uM. The following applies: dose 0.01-1000 µM.
Chain of Serine/threonine-protein phosphatase PP1-beta catalytic subunit (Homo sapiens) (P62140 whole entry): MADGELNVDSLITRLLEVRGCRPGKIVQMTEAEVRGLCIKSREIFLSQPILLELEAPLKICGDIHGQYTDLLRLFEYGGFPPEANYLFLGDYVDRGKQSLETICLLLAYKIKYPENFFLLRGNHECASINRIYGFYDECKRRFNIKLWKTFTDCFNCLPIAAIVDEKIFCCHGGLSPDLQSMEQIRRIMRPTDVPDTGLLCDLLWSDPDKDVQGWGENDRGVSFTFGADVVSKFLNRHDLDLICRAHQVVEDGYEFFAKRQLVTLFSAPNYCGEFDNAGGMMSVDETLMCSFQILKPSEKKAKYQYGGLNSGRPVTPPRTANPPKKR
Data set [5] concerns the target T1, Serine/threonine-protein phosphatase 5 (Homo sapiens) (UniProt P53041).
T1 sequence (whole entry): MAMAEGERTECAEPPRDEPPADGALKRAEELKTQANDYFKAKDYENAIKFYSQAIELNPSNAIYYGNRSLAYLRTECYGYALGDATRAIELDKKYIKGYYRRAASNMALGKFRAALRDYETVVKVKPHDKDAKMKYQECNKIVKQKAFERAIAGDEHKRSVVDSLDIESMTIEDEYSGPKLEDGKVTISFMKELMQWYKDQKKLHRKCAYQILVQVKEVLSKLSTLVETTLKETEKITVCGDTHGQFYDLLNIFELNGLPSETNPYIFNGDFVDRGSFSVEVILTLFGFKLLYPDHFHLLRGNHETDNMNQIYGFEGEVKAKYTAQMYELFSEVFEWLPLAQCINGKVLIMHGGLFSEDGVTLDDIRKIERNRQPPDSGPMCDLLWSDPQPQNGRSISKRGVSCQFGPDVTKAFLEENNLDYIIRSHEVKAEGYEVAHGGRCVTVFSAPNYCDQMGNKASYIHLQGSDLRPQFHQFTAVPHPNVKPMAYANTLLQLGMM
The experiment in a line: Binding affinity to human PP5 extracted from Escherichia coli BL21 using CDC37 as substrate assessed as increase in dephosphorylation of p-CDC37 at S13 residue at 25 uM by Western blot analysis. The following applies: filed as activator, time 0.5-2 hrs, TDE = time-dependent effect.

The species named for a further data set is Homo sapiens. The experiment in a line: Inhibition of PP2A (unknown origin) using DiFMUP as substrate at 0.01 to 1000 uM. The following applies: dose 0.01-1000 µM.
Data set [6] concerns the target T1, Serine/threonine-protein phosphatase 5 (Homo sapiens). The experiment in a line: Binding affinity to His-tagged human PP5 TPR domain extracted from Escherichia coli BL21 by ITC analysis. (ITC needs no label: the signal is the heat of the interaction.)
In data set [7] the test system is T2, Serine/threonine-protein phosphatase 5 (Homo sapiens), P53041 [K430A].
T2 sequence (whole entry): T1 sequence (whole entry) with K430A
The experiment in a line: Activation of PP5 K430A mutant (unknown origin) using pNPP as substrate assessed as increase in phosphatase activity at 10 to 200 uM incubated for 30 mins by spectrophotometric analysis. The following applies: dose 10-200 µM.

Data set [8] deals with HCT-116. The experiment in a line: Downregulation of AT13387-induced HSP40 mRNA expression in human HCT-116 cells at 50 uM incubated for 24 hrs by qRT-PCR analysis. The format is functional, cell-based.
In data set [9] the test system is SW-620. The experiment in a line: Enhancement of HSP90 inhibitor AT13387-induced antiproliferative activity against human SW620 cells assessed as HSP90 inhibitor AT13387 IC50 at 50 uM incubated for 72 hrs by CCK8 assay (reference value: 122.3 nM). The class given is functional, cell-based. The following applies: SW-620, 72 h.
Data set [10] relates to HCT-116. The experiment in a line: Enhancement of HSP90 inhibitor AT13387-induced antiproliferative activity against human HCT-116 cells assessed as fold change in HSP90 inhibitor AT13387 IC50 at 50 uM incubated for 72 hrs by CCK8 assay. The class given is functional.
In data set [11] the test system is SW-620. The experiment in a line: Antiproliferative activity against human SW620 cells assessed as inhibition of cell proliferation at 1 to 100 uM incubated for 72 hrs by CCK8 assay. The class given is functional, cell-based. The following applies: dose 1-100 µM.
Data set [12] deals with HCT-116. The experiment in a line: Downregulation of AT13387-induced HSP27 expression in human HCT-116 cells at 50 uM incubated for 24 hrs by Western blot analysis. The class given is functional, cell-based.
Data set [13] has as its system T3, Serine/threonine-protein phosphatase 5 (Homo sapiens), P53041 [V429A].
T3 sequence (whole entry): T1 sequence (whole entry) with V429A
The experiment in a line: Binding affinity to PP5 V429A mutant (unknown origin) by ITC analysis.

Data set [14] concerns the target T4, Serine/threonine-protein phosphatase 5 (Homo sapiens, UniProt P53041).
T4 sequence (P53041 whole entry): T1 sequence (whole entry)
The experiment in a line: Binding affinity to full length His-tagged human PP5 extracted from Escherichia coli BL21 assessed as dissociation constant by ITC analysis.

Data set [15] deals with HCT-116. The experiment in a line: Antitumor activity against human HCT-116 cells xenografted in BALB/c nude mouse at 30 to 60 mg/kg, ip administered every other day for 14 days in presence of AT13387. The class given is functional, organism-based. The following applies: dose 30-60 mg/kg, time 14.0 day.
Data set [16] can be described thus: AUC (0 to t) in Sprague-Dawley rat at 10 mg/kg, ip measured after 8 hrs by LC-MS/MS analysis. The following applies: in vivo. The format is ADME, organism-based.

As a reminder, the IC50 is the concentration needed to halve the response being measured. One may read the Kd as a measure of binding affinity in units of concentration. As a reminder, the AUC(0-t) is exposure summed from dosing to a finite time, without extrapolation to infinity. On to `N=c1oc2cc(F)cc(F)c2cc1C(N)=S`, for which the outcome (with HCT-116 [1]; in the data set with HCT-116 [3]; in [6]; in [7]; with SW-620 [11]; in data set [13]) was inactive. Further, the result in the data set on HCT-116 [2], with HCT-116 [8], in the data set on HCT-116 [12] and with HCT-116 [15] was Active. For the same compound, the inhibition entry (in [4]; in the data set listed under Homo sapiens) was “inactive” throughout. Further, the Activity result in data set [5] is “Tde”. In addition, in the data set on SW-620 [9], the IC50 was 54.4 nM. In the data set on HCT-116 [10], the “fold change (FC)” value worked out at 2. In addition, in data set [14], the dissociation constant (Kd) turned out to be 1140 nM. In data set [16], this compound displayed an AUC(0-t) at 8 h of 111 ng·h/mL.
